Laboratory results reported in PubChem BioAssay AID328 (DTP/NCI, 2004).
Where “and” joins values, the source holds several entries; their conditions need not be identical. Equal values may be shown once. Inconclusive results and toxic doses are left out.

Tested on: BDF1 mice, P388 leukemia ip, median survival T/C
Test: NCI In Vivo Anticancer Drug Screen. Data for tumor model P388 Leukemia (intraperitoneal) in B6D2F1 (BDF1) mice
Conditions: endpoint: median survival time, higher = longer survival
Outline: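 T/C = treated-group survival ÷ vehicle-control survival; tumour transplanted into mice before dosing.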

[1] = dose: 100.0 mg/kg/injection, schedule: Q01DX009 (ip), vehicle: saline with Tween-80
[2] = dose: 200.0 mg/kg/injection, schedule: Q01DX009 (ip), vehicle: saline with Tween-80
[3] = dose: 400.0 mg/kg/injection, schedule: Q01DX009 (ip), vehicle: saline with Tween-80
[4] = dose: 12.5 mg/kg/injection, schedule: Q01DX009 (ip), vehicle: saline
[5] = dose: 25.0 mg/kg/injection, schedule: Q01DX009 (ip), vehicle: saline
[6] = dose: 25.0 mg/kg/injection, schedule: Q04DX003 (ip), vehicle: saline
[7] = dose: 50.0 mg/kg/injection, schedule: Q01DX009 (ip), vehicle: saline
[8] = dose: 50.0 mg/kg/injection, schedule: Q04DX003 (ip), vehicle: saline
[9] = dose: 100.0 mg/kg/injection, schedule: Q01DX009 (ip), vehicle: saline
[10] = dose: 100.0 mg/kg/injection, schedule: Q04DX003 (ip), vehicle: saline
[11] = dose: 100.0 mg/kg/injection, schedule: Q04DX003 (ip), vehicle: saline with Tween-80
[12] = dose: 400.0 mg/kg/injection, schedule: Q04DX003 (ip), vehicle: saline with Tween-80
[13] = dose: 25.0 mg/kg/injection, schedule: Q01DX009 (ip), vehicle: saline with Tween-80
[14] = dose: 50.0 mg/kg/injection, schedule: Q01DX009 (ip), vehicle: saline with Tween-80
[15] = dose: 50.0 mg/kg/injection, schedule: Q01DX009 (ip), vehicle: Klucel (hydroxypropylcellulose) (HPC)
[16] = dose: 100.0 mg/kg/injection, schedule: Q01DX009 (ip), vehicle: Klucel (hydroxypropylcellulose) (HPC)
[17] = dose: 50.0 mg/kg/injection, schedule: Q01DX005 (ip), vehicle: saline with Tween-80
[18] = dose: 100.0 mg/kg/injection, schedule: Q01DX005 (ip), vehicle: saline with Tween-80
[19] = dose: 200.0 mg/kg/injection, schedule: Q01DX005 (ip), vehicle: saline with Tween-80
[20] = dose: 50.0 mg/kg/injection, schedule: Q01DX001 (ip), vehicle: saline with Tween-80
[21] = dose: 100.0 mg/kg/injection, schedule: Q01DX001 (ip), vehicle: saline with Tween-80
[22] = dose: 200.0 mg/kg/injection, schedule: Q01DX001 (ip), vehicle: saline with Tween-80

Oc1c(CN2CCOCC2)cc(CN2CCOCC2)cc1CN1CCOCC1
T/C [1]: 91 % of control
T/C [2]: 86 % of control
T/C [3]: 100 % of control

Cc1[nH]c(=O)[nH]c(=O)c1/C=C/C(=O)NC(CO)CC(C)C (stereo not given)
T/C [4]: 108 % of control
T/C [5]: 90 % of control
T/C [6]: 107 % of control
T/C [7]: 102 % of control
T/C [8]: 100 % of control
T/C [9]: 91 % of control
T/C [10]: 91 % of control
T/C (dose: 200.0 mg/kg/injection, schedule: Q01DX009 (ip), vehicle: saline): 108 % of control
T/C (dose: 200.0 mg/kg/injection, schedule: Q04DX003 (ip), vehicle: saline): 109 % of control
T/C (dose: 400.0 mg/kg/injection, schedule: Q01DX009 (ip), vehicle: saline): 100 % of control
T/C (dose: 400.0 mg/kg/injection, schedule: Q04DX003 (ip), vehicle: saline): 116 % of control

COc1ccc(/C=C2\CCCC3=C2N=C2SCC(=O)N2C3c2ccc(OC)cc2)cc1 (stereo not given)
T/C [11]: 90 % of control
T/C [12]: 90 % of control

NNC(=O)CCc1ccccc1Br
T/C [13]: 100 % of control
T/C [14]: 100 % of control

O=C(CN1CC1)NCCCCCCCCNC(=O)CN1CC1
T/C (dose: 12.5 mg/kg/injection, schedule: Q01DX009 (ip), vehicle: saline with Tween-80): 200 % of control
T/C [13]: 259 % of control
T/C (dose: 33.0 mg/kg/injection, schedule: Q04DX003 (ip), vehicle: saline with Tween-80): 190 % of control
T/C [14]: 86 % of control
T/C (dose: 50.0 mg/kg/injection, schedule: Q04DX003 (ip), vehicle: saline with Tween-80): 209 % of control
T/C (dose: 75.0 mg/kg/injection, schedule: Q04DX003 (ip), vehicle: saline with Tween-80): 245 % of control

O=CC(Cl)Cl
T/C [6]: 100 % of control
T/C [8]: 95 % of control
T/C [10]: 100 % of control

COc1cc(/C=C2\SC(=S)N(CCCN3CCOCC3)C2=O)ccc1O
T/C (dose: 12.5 mg/kg/injection, schedule: Q01DX009 (ip), vehicle: suspension in saline): 86 % of control
T/C (dose: 25.0 mg/kg/injection, schedule: Q01DX009 (ip), vehicle: suspension in saline): 101 % of control
T/C (dose: 50.0 mg/kg/injection, schedule: Q01DX009 (ip), vehicle: suspension in saline): 99 % of control

CN1C2CCC1CN(Cc1ccccc1)C2
T/C [4]: 95 % of control
T/C (dose: 12.5 mg/kg/injection, schedule: Q04DX003 (ip), vehicle: saline): 88 % of control
T/C [5]: 95 % of control
T/C [6]: 100 % of control
T/C [7]: 91 % of control
T/C [8]: 100 % of control

C=CCC(CC)C(=O)O (stereo not given)
T/C [7]: 100 % of control
T/C [9]: 104 % of control

COc1cc(N(CCCl)CCCl)ccc1/C=N\NC(=O)c1cccnc1
T/C (dose: 25.0 mg/kg/injection, schedule: Q01DX009 (ip), vehicle: Klucel (hydroxypropylcellulose) (HPC)): 98 % of control
T/C [15]: 97 % of control
T/C [16]: 112 % of control

CS(=O)(=O)n1c(CBr)nc2ccccc21
T/C (dose: 25.0 mg/kg/injection, schedule: Q04DX003 (ip), vehicle: saline sonified): 109 % of control
T/C (dose: 50.0 mg/kg/injection, schedule: Q04DX003 (ip), vehicle: saline sonified): 118 % of control
T/C (dose: 100.0 mg/kg/injection, schedule: Q04DX003 (ip), vehicle: saline sonified): 122 % of control

Cc1ccc(Nc2n[nH]c(=S)s2)cc1C
T/C [1]: 104 % of control
T/C [2]: 109 % of control
T/C [3]: 109 % of control

Cc1ccc(C)c2c1CCC2C (stereo not given)
T/C [1]: 123 % of control
T/C [2]: 96 % of control

CC(C)=CCC/C(C)=C/CN1C(=O)CC(C)=C(C)C1=O
T/C [11]: 100 % of control
T/C (dose: 200.0 mg/kg/injection, schedule: Q04DX003 (ip), vehicle: saline with Tween-80): 100 % of control
T/C [12]: 104 % of control

O=C(CC(=O)Oc1ccc(Cl)cc1Cl)Oc1ccc(Cl)cc1Cl
T/C [1]: 100 % of control
T/C [2]: 100 % of control
T/C [3]: 100 % of control

c1ccc(-c2nc3ccccc3nc2-c2ccc(Sc3ccc(-c4nc5ccccc5nc4-c4ccccc4)cc3)cc2)cc1
T/C [1]: 101 % of control
T/C [2]: 93 % of control

O=Cc1ccc2c(c1)OCCOCCOCCOCCO2
T/C [14]: 104 % of control
T/C [1]: 121 % of control
T/C [2]: 117 % of control

O=c1c2ccccc2nc(-c2ccccc2Cl)n1/N=C/c1cccc([N+](=O)[O-])c1
T/C [1]: 93 % of control
T/C [2]: 100 % of control

O=C1NC(c2cccs2)(c2cccs2)C(=O)N1Cl
T/C (dose: 6.25 mg/kg/injection, schedule: Q01DX009 (ip), vehicle: water): 94 % of control
T/C (dose: 6.25 mg/kg/injection, schedule: Q04DX003 (ip), vehicle: water): 97 % of control
T/C (dose: 12.5 mg/kg/injection, schedule: Q01DX009 (ip), vehicle: water): 104 % of control
T/C (dose: 12.5 mg/kg/injection, schedule: Q04DX003 (ip), vehicle: water): 97 % of control
T/C (dose: 25.0 mg/kg/injection, schedule: Q01DX009 (ip), vehicle: water): 103 % of control
T/C (dose: 25.0 mg/kg/injection, schedule: Q04DX003 (ip), vehicle: water): 97 % of control
T/C (dose: 50.0 mg/kg/injection, schedule: Q01DX009 (ip), vehicle: water): 116 % of control
T/C (dose: 50.0 mg/kg/injection, schedule: Q04DX003 (ip), vehicle: water): 95 % of control
T/C (dose: 100.0 mg/kg/injection, schedule: Q04DX003 (ip), vehicle: water): 95 % of control
T/C (dose: 200.0 mg/kg/injection, schedule: Q04DX003 (ip), vehicle: water): 88 % of control

CC1(C)O[C@]2(C)CC[C@@H]1[C@@H](O)[C@@H]2N1CCCCC1
T/C [17]: 109 % of control
T/C [18]: 111 % of control
T/C [19]: 97 % of control

[Cl][Pb]([Cl])([c]1ccccc1)[c]1ccccc1
T/C [13]: 91 % of control
T/C [14]: 87 % of control
T/C [1]: 97 % of control

NNC(=O)C1CC2C=CCC(C2)C1 (stereo not given)
T/C [20]: 100 % of control
T/C [21]: 91 % of control
T/C [22]: 91 % of control

COc1ccc2c(ccc[n+]2C)c1
T/C (dose: 7.2 mg/kg/injection, schedule: Q01DX009 (ip), vehicle: saline): 104 % of control
T/C (dose: 9.37 mg/kg/injection, schedule: Q04DX003 (ip), vehicle: saline): 91 % of control
T/C (dose: 10.0 mg/kg/injection, schedule: Q01DX009 (ip), vehicle: saline): 104 % of control
T/C (dose: 18.75 mg/kg/injection, schedule: Q04DX003 (ip), vehicle: saline): 91 % of control
T/C (dose: 35.0 mg/kg/injection, schedule: Q04DX003 (ip), vehicle: saline): 122 % of control
T/C (dose: 36.7 mg/kg/injection, schedule: Q04DX003 (ip), vehicle: saline): 110 % of control
T/C (dose: 37.5 mg/kg/injection, schedule: Q01DX009 (ip), vehicle: saline): 150 % of control and 155 % of control
T/C (dose: 37.5 mg/kg/injection, schedule: Q04DX003 (ip), vehicle: saline): 104 % of control
T/C (dose: 55.0 mg/kg/injection, schedule: Q04DX003 (ip), vehicle: saline): 154 % of control

COC(=O)C(Sc1ccc(Cl)cc1)C1SC(=S)N(C)C1=O (stereo not given)
T/C [1]: 118 % of control
T/C [2]: 92 % of control

CCNC(=O)N(CC(N)=O)c1ncc([N+](=O)[O-])s1
T/C (dose: 12.5 mg/kg/injection, schedule: Q01DX001 (ip), vehicle: saline with Tween-80): 98 % of control
T/C (dose: 25.0 mg/kg/injection, schedule: Q01DX001 (ip), vehicle: saline with Tween-80): 106 % of control
T/C [20]: 98 % of control
T/C [17]: 94 % of control
T/C [21]: 93 % of control
T/C [18]: 86 % of control
T/C [22]: 98 % of control
T/C [19]: 96 % of control

CCOC(=O)C(=Cc1ccc(C=C(C(=O)OCC)C(=O)OCC)cc1)C(=O)OCC
T/C [15]: 110 % of control
T/C [16]: 105 % of control
T/C (dose: 100.0 mg/kg/injection, schedule: Q04DX003 (ip), vehicle: Klucel (hydroxypropylcellulose) (HPC)): 91 % of control
T/C (dose: 200.0 mg/kg/injection, schedule: Q01DX009 (ip), vehicle: Klucel (hydroxypropylcellulose) (HPC)): 95 % of control
T/C (dose: 200.0 mg/kg/injection, schedule: Q04DX003 (ip), vehicle: Klucel (hydroxypropylcellulose) (HPC)): 91 % of control
